Counter-ions that a name gives are not always drawn.
Columns and labels:
[1] = P-phenylquinone-induced abdominal writhing test in mice (analgesia, mouse writhing, graded); type: in vivo, mouse (male Charles River, Swiss Strain); settings: sc, 20 min, 20 min pretreatment, p-phenylquinone 2 mg/Kg i.p., 8 min observation
Excerpt: The pharmacological activity of the compounds of this invention is illustrated by the mouse writhing test, described as follows:
P-phenylquinone-induced abdominal writhing test in mice
The methodology employed is based on that described by Sigmund et al, Proc. Soc. Exptl. Biol. 95, 729/1957, modified by Milne and Twomey, Agents and Actions, 10, 31/1980.
Male Charles River mice (Swiss Strain), 25-36 g body weight, were used. Animals were allowed food and water ad libitum and were randomized into groups of 10 prior to experimentation. Test compounds were dissolved in either distilled water or distilled water plus 0.1M AMS, and administered by the subcutaneous route in a final volume of 10 ml/Kg. Control animals received 10 ml/Kg of the appropriate vehicle alone. Following a pretreatment period of 20 min., mice were injected intraperitoneally with p-phenylquinone, 2 mg/Kg at 37° C. in a final volume of 10 mg/kg. […] During this period the number of abdominal writhing responses per animal were recorded where writhing consists of an intermittent contraction of the abdomen associated with hind leg extension.
The degree of antinociceptive protection afforded by the test compound was determined as the mean number of writhing responses observed in the treated group (T) expressed as a percentage of the mean number of writhing responses in the control group (C) according to the following formula:
[1-(T/C]×100%=% graded protection

kappa brain receptor = biological target: T1, kappa brain receptor (Cavia porcellus, UniProt P41144); test: Kappa brain receptor binding (binding to kappa sites); settings: guinea pig brain homogenate, tritiated kappa selective compound, 40 min, 25° C.
T1 construct: fresh guinea pig brain homogenates; from tissue; host or cells: guinea pig whole brain without cerebellum, fresh homogenate
Procedure: Radio receptor binding to kappa site is performed on fresh guinea pig brain homogenates prepared according to Kosterlitz (1981).
Whole brain without cerebellum is homogenized in 50 mM Tris-buffer (pH 7.4 at 0° C.) and centrifuged at 49,000×g for 10 min.
The pellet is then resuspended in the same buffer, incubated at 37° C. for 45 min and centrifuged again.
1.9 ml of the final homogenate (1:100 in Tris pH 7.4, 0° C.) is used for the binding assay.
The binding to the kappa sites is performed using a tritiated kappa selective compound. Final homogenate with solutions of the cold ligand and of the labelled ligand is incubated for 40 min at 25° C., filtered through Whatman GF/C glass filter discs and washed. The radioactivity bound to the filters is counted by liquid scintillation spectrophotometry.
The non-specific binding is determined in the presence of 500 nM of the benzomorphan non-selective compound Mr 2266.
The equilibrium dissociation constant […] and the maximum binding capacity (Bmax) are determined from the analysis of saturation curves, while the inhibition constant (Ki) is determined from the analysis of competition experiments (Hill 1910; Scatchard 1949; Cheng and Prusoff 1973; Gillan et al 1980).

T1 sequence (P41144 whole entry): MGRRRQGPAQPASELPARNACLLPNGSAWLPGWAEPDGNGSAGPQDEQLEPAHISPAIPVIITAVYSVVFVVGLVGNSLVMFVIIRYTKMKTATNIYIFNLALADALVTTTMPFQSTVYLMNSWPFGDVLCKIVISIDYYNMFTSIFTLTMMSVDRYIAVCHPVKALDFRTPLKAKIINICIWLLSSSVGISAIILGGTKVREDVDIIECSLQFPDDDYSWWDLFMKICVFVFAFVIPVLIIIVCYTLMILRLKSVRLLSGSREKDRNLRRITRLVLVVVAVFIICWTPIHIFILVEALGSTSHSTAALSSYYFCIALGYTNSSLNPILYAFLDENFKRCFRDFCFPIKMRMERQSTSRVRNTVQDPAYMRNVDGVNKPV

SMILES	ED50 [1] [mg/kg]	Ki (kappa brain receptor) [nM]
CN(C)CC1CC(C)(C)CCN1C(=O)Cc1ccc2c(c1)CCCC2=O (racemic) [Example 5, (±)-1-[1-oxo-3,4-dihydro-(2H)-napht-6-yl]acetyl-2-dimethylaminomethyl-4,4-dimethyl piperidine hydrochloride]	0.377	65
CN(C)CC1CCC(C)(C)CN1C(=O)Cc1ccc2c(c1)CCCC2=O (racemic) [Example 6, (±)-1-[1-oxo-3,4-dihydro-(2H)-napht-6-yl]acetyl-2-dimethylaminomethyl-5,5-dimethyl piperidine hydrochloride]	0.641	88.7
CN(C)C[C@@H]1CCCCN1C(=O)Cc1ccc2c(c1)CCCC2=O [Example 1, (2S)-1-[1-oxo-3,4-dihydro-(2H)-napht-6-yl]acetyl-2-dimethyl-aminomethyl piperidine hydrochloride]	0.154	–
CCN(C)C[C@@H]1CCCCN1C(=O)Cc1ccc2c(c1)CCCC2=O [Example 2, (2S)-1-[1-oxo-3,4-dihydro-(2H)-napht-6-yl]acetyl-2-(N-methyl-N-ethyl)aminomethyl piperidine hydrochloride]	0.061	–
CCN(CC)C[C@@H]1CCCCN1C(=O)Cc1ccc2c(c1)CCCC2=O [Example 3, (2S)-1-[1-oxo-3,4-dihydro-(2H)-napht-6-yl]acetyl-2-diethylaminomethyl piperidine hydrochloride]	0.427	–
CCCN(C)C[C@@H]1CCCCN1C(=O)Cc1ccc2c(c1)CCCC2=O [Example 9, (2S)-1-[1-oxo-3,4-dihydro-(2H)-napht-6-yl]acetyl-2-(N-methyl-N-propyl)aminomethyl piperidine hydrochloride]	0.221	10 to 50
CC(C)N(C)C[C@@H]1CCCCN1C(=O)Cc1ccc2c(c1)CCCC2=O [Example 10, (2S)-1-[1-oxo-3,4-dihydro-(2H)-napht-6-yl]acetyl-2-(N-methyl-N-isopropyl)aminomethyl piperidine hydrochloride emihydrate]	0.078	2.87
C=CCN(C)C[C@@H]1CCCCN1C(=O)Cc1ccc2c(c1)CCCC2=O [Example 11, (2S)-1-[1-oxo-3,4-dihydro-(2H)-napht-6-yl]acetyl-2-(N-allyl-N-methyl)aminomethyl piperidine hydrochloride]	0.13	~50
CN(C[C@@H]1CCCCN1C(=O)Cc1ccc2c(c1)CCCC2=O)C1CC1 [Example 12, (2S)-1-[1-oxo-3,4-dihydro-(2H)-napht-6-yl]acetyl-2-(N-cyclopropyl-N-methyl)aminomethyl piperidine hydrochloride]	0.141	50
CN(C)C[C@@H]1CC(C)(C)CCN1C(=O)Cc1ccc2c(c1)CCCC2=O [Example 15, (-)-1-[1-oxo-3,4-dihydro-(2H)-napht-6-yl]acetyl-2-dimethylaminomethyl-4,4-dimethylpiperidine D(-) tartrate]	0.115	22.9
C#CCN(C)C[C@@H]1CCCCN1C(=O)Cc1ccc2c(c1)CCCC2=O [Example 16, (2S)-1-[1-oxo-3,4-dihydro-(2H)-napht-6-yl]acetyl-2-(N-methyl-N-propargyl)aminomethyl piperidine hydrochloride]	0.056	–
CN(C[C@@H]1CCCCN1C(=O)Cc1ccc2c(c1)CCCC2=O)C1CCC1 [Example 17, (2S)-1-[1-oxo-3,4-dihydro-(2H)-napht-6-yl]acetyl-2-(N-cyclobutyl-N-methyl)aminomethyl piperidine hydrochloride]	0.127	–
CN(C[C@@H]1CCCCN1C(=O)Cc1ccc2c(c1)CCCC2=O)C1CCCC1 [Example 18, (2S)-1-[1-oxo-3,4-dihydro-(2H)-napht-6-yl]acetyl-2-(N-cyclopentyl-N-methyl)aminomethyl piperidine hydrochloride .1/4 H2 O]	0.21	–

Source: patent US5428042A, “1-(2H-1-oxo-3,4-dihydronaphtyl-6-yl)-acetyl-piperidines as kappa agonists” (Dr Lo Zambeletti S.p.A., priority 1990, dated 1995)
